Assay [1] can be described thus: In vitro ability to displace tritiated nicotine from rat brain binding sites, and calcium flux (c.f). (A change in cytosolic calcium serves as a functional read-out for many receptors and channels.)
Assay [2] concerns the target T1, Neuronal acetylcholine receptor; alpha4/beta2 (Homo sapiens, UniProt P17787+P43681). Put plainly: Compound was evaluated for agonist activity against activated human recombinant aNicotinic acetylcholine receptor alpha4-beta2 in Xenopus Oocytes. The assay is classed as functional, cell-based.
Assay [3] deals with T2, Neuronal acetylcholine receptor; alpha2/beta4 (Homo sapiens, UniProt P30926+Q15822). Put plainly: (§1) Compound was evaluated for agonist activity against activated human recombinant Nicotinic acetylcholine receptor alpha2-beta4 in Xenopus Oocytes. The assay is classed as functional, cell-based.
T2 sequence (P30926 whole entry): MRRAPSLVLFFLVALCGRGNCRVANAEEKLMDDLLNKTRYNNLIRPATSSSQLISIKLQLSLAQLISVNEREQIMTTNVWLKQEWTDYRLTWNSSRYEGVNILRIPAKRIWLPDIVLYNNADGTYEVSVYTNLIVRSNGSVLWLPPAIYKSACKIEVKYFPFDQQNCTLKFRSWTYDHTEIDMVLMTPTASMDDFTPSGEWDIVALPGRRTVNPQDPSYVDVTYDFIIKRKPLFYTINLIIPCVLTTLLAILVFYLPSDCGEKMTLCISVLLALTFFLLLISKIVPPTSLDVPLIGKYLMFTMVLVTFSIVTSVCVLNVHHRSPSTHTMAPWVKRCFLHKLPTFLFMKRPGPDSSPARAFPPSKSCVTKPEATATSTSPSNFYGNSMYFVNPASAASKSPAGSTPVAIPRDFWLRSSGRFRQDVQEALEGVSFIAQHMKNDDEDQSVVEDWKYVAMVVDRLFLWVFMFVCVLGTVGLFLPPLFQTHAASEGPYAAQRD
T2 sequence (Q15822 whole entry): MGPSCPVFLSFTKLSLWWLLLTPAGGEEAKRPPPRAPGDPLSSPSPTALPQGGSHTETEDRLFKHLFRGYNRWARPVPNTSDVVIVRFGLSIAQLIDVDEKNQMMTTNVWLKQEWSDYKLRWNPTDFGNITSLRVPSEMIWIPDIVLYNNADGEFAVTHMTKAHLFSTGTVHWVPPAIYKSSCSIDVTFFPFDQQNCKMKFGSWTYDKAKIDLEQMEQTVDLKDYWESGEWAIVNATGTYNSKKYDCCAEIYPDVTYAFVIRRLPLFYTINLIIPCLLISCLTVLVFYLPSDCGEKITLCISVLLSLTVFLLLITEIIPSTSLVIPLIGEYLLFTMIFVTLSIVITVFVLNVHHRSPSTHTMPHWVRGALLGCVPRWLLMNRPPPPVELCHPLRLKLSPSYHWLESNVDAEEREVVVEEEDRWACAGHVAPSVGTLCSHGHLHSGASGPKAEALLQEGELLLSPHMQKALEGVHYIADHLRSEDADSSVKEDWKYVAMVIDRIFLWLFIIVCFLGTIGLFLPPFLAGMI
Assay [4] is filed under the species Rattus norvegicus. Kind of assay: Compound was tested for its ability to release dopamine from rat striatal slices at 300 uM. The assay is classed as functional.
In assay [5] the target is T2, Neuronal acetylcholine receptor; alpha2/beta4. Described as §1. The assay is classed as functional, cell-based. The source holds these as a separate data set.
The target of assay [6] is T1, Neuronal acetylcholine receptor; alpha4/beta2. Put plainly: Compound was evaluated for agonist activity against activated human recombinant Nicotinic acetylcholine receptor alpha4-beta2 in Xenopus Oocytes. The assay is classed as functional, cell-based.
Assay [7] has as its target T3, Neuronal acetylcholine receptor; alpha4/beta4 (Homo sapiens, UniProt P30926+P43681). Kind of assay: Compound was evaluated for agonist activity against activated human recombinant Nicotinic acetylcholine receptor alpha4-beta4 in Xenopus Oocytes. The assay is classed as functional, cell-based.
Assay [8] concerns the target Neuronal acetylcholine receptor; alpha3/beta4 (Homo sapiens) (UniProt P30926+P32297). Put plainly: In vitro agonist activity against activated human recombinant Nicotinic acetylcholine receptor alpha3-beta4 in Xenopus Oocytes. It is filed as functional, cell-based.
Assay [9] in a line: In vitro ability to displace tritiated nicotine from rat brain binding sites.
The nature of assay [10]: In vitro agonist activity against activated human recombinant alpha3-beta4 neuronal acetylcholine receptors (nAChR) in Xenopus Oocytes. It is filed as functional, cell-based.
For assay [11], the target named is T3, Neuronal acetylcholine receptor; alpha4/beta4. Put plainly: Compound was evaluated for its agonist activity against activated human recombinant Nicotinic acetylcholine receptor alpha4-beta4 in Xenopus Oocytes. It is filed as functional, cell-based.
Assay [12] is filed under the species Rattus norvegicus. Put plainly: In vitro ability to release dopamine from rat striatal slices. The assay is classed as functional.

T1 sequence (P17787 whole entry): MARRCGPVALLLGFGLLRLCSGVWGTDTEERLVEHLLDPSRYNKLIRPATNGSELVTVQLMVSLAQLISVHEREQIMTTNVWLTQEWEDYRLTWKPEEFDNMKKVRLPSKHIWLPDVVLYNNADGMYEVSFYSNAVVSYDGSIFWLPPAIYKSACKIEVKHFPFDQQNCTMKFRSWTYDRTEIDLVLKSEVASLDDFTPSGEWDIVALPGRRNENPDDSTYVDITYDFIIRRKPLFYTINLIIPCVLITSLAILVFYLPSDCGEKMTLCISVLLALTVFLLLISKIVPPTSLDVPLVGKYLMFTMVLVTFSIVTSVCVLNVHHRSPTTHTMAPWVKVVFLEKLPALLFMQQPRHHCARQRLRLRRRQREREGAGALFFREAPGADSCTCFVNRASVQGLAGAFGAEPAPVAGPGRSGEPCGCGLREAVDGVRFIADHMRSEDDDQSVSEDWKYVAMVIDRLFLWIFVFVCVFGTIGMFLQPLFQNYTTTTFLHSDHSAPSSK
T1 sequence (P43681 whole entry): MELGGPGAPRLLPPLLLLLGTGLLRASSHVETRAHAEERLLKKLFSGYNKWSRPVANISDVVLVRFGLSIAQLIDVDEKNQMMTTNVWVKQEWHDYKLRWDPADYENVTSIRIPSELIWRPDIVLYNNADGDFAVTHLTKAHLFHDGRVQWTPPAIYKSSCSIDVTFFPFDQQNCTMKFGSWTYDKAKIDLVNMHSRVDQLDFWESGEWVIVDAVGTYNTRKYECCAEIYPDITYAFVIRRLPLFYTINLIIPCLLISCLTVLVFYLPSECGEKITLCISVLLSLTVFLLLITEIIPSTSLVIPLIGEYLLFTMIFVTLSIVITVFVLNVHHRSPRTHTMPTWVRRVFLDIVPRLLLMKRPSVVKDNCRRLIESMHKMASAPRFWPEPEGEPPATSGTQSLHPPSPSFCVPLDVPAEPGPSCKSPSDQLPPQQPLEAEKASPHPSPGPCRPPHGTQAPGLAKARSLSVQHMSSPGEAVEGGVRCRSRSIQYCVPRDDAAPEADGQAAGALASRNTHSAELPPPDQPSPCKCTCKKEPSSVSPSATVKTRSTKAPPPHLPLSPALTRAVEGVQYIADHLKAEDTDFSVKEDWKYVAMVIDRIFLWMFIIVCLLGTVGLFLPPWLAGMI
T3 sequence (P30926 whole entry): as the sequence (P30926 whole entry) above
T3 sequence (P43681 whole entry): as the sequence (P43681 whole entry) above

Take `CN1CCC[C@H]1c1cccnc1` [NICOTINE]: the IC50 in assay [1] is 0.004 µM.
As to `COc1cc2c(cn1)C1NCCC1CC2` (stereo not drawn), the EC50 in assay [2] is 3 µM; in assay [5] it was 87 µM; in [10] it was 81 µM; in assay [11] it was 32 µM. Also, the Efficacy stood at 22% in [3]; 73 in [4]; 8% in assay [6]; 44% in assay [7]; 5% in [8]. The compound further returned an IC50 in assay [9] of 1.9 µM.
For `c1cc2c(cn1)C1NCCC1CC2` (stereo not drawn), in assay [12], the Efficacy was found to be 56%. Moreover, the IC50 in assay [1] came out at 0.51 µM.

What is called IC50 is the point on the concentration scale where inhibition reaches its midpoint. For orientation: EC50 means the concentration that produces a half-maximal response.
